Measured values from ChEMBL document CHEMBL1136938, “Structure-activity relationships comparing N-(6-methylpyridin-yl)-substituted aryl amides to 2-methyl-6-(substituted-arylethynyl)pyridines or 2-methyl-4-(substituted-arylethynyl)thiazoles as novel metabotropic glutamate receptor subtype 5 antagonists” (J Med Chem, 2009).

Tests used:
[1] = molecular target: T1, Metabotropic glutamate receptor 5 (Homo sapiens, UniProt P41594); assay: Displacement of [3H]MPEP from cloned mGluR5 expressed in HEK293T cells by scintillation counting; format: cell-based, HEK-293T
[2] = molecular target: T1, Metabotropic glutamate receptor 5; assay: Antagonist activity at cloned mGluR5 expressed in CHO cells co-transfected with chimeric G protein Gqi9 assessed as inhibition of glutamate-induced intracellular inositol phosphate accumulation at 10 uM by phosphoinositide hydrolysis assay; format: functional, cell-based
[3] = molecular target: Metabotropic glutamate receptor 1 (Homo sapiens) (UniProt Q13255); assay: Antagonist activity at cloned mGluR1 expressed in CHO cells co-transfected with chimeric G protein Gqi9 assessed as inhibition of glutamate-induced intracellular inositol phosphate accumulation at 10 uM by phosphoinositide hydrolysis assay; format: functional, cell-based
[4] = molecular target: Metabotropic glutamate receptor 6 (Homo sapiens) (UniProt O15303); assay: Antagonist activity at cloned mGluR6 expressed in CHO cells co-transfected with chimeric G protein Gqi9 assessed as inhibition of glutamate-induced intracellular inositol phosphate accumulation at 10 uM by phosphoinositide hydrolysis assay; format: functional, cell-based
[5] = molecular target: T2, Metabotropic glutamate receptor 5 (Rattus norvegicus, UniProt P31424); assay: Displacement of [3H]MPEP from rat brain recombinant mGluR5 expressed in HEK293T cells by scintillation counting; format: cell-based, HEK-293T
[6] = molecular target: T2, Metabotropic glutamate receptor 5; assay: Antagonist activity at rat mGluR5 expressed in HEK293A cells assessed as glutamate-induced calcium flux preincubated for 140 sec before glutamate challenge by calcium fluorescence assay; format: functional, cell-based, HEK293-A
[7] = molecular target: T3, Sodium-dependent dopamine transporter (Homo sapiens, UniProt Q01959); assay: Displacement of [125I]RTI55 from human DAT expressed in HEK293 cells; format: cell-based
[8] = molecular target: T4, Sodium-dependent serotonin transporter (Homo sapiens, UniProt P31645); assay: Displacement of [125I]RTI55 from human SERT expressed in HEK293 cells; format: cell-based
[9] = molecular target: T5, Sodium-dependent noradrenaline transporter (Homo sapiens, UniProt P23975); assay: Displacement of [125I]RTI55 from human NET expressed in HEK293 cells; format: cell-based
[10] = molecular target: T3, Sodium-dependent dopamine transporter; assay: Inhibition of dopamine uptake at human DAT expressed in HEK293 cells; format: cell-based
[11] = molecular target: T4, Sodium-dependent serotonin transporter; assay: Inhibition of serotonin uptake at human SERT expressed in HEK293 cells; format: cell-based
[12] = molecular target: T5, Sodium-dependent noradrenaline transporter; assay: Inhibition of norepinephrine uptake at human NET expressed in HEK293 cells; format: cell-based

T5 sequence (P23975 whole entry): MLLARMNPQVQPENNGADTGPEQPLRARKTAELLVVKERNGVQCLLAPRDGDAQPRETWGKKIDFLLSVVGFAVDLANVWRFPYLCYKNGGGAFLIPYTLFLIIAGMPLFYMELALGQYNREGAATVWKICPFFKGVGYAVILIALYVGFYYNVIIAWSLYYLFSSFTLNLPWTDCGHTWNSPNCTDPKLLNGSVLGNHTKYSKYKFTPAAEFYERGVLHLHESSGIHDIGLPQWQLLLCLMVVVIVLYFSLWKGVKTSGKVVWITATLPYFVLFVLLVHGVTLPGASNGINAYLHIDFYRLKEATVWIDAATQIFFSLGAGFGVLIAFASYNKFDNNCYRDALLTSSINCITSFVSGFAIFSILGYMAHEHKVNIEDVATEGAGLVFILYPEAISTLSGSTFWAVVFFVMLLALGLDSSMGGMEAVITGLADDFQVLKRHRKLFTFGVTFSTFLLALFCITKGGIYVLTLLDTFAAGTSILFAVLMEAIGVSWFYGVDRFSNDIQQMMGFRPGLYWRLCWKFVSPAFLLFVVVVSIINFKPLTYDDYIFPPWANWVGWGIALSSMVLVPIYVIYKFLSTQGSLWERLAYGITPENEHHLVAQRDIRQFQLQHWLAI
Sequence of Metabotropic glutamate receptor 1 (Homo sapiens) (Q13255 19-1194 limits assumed): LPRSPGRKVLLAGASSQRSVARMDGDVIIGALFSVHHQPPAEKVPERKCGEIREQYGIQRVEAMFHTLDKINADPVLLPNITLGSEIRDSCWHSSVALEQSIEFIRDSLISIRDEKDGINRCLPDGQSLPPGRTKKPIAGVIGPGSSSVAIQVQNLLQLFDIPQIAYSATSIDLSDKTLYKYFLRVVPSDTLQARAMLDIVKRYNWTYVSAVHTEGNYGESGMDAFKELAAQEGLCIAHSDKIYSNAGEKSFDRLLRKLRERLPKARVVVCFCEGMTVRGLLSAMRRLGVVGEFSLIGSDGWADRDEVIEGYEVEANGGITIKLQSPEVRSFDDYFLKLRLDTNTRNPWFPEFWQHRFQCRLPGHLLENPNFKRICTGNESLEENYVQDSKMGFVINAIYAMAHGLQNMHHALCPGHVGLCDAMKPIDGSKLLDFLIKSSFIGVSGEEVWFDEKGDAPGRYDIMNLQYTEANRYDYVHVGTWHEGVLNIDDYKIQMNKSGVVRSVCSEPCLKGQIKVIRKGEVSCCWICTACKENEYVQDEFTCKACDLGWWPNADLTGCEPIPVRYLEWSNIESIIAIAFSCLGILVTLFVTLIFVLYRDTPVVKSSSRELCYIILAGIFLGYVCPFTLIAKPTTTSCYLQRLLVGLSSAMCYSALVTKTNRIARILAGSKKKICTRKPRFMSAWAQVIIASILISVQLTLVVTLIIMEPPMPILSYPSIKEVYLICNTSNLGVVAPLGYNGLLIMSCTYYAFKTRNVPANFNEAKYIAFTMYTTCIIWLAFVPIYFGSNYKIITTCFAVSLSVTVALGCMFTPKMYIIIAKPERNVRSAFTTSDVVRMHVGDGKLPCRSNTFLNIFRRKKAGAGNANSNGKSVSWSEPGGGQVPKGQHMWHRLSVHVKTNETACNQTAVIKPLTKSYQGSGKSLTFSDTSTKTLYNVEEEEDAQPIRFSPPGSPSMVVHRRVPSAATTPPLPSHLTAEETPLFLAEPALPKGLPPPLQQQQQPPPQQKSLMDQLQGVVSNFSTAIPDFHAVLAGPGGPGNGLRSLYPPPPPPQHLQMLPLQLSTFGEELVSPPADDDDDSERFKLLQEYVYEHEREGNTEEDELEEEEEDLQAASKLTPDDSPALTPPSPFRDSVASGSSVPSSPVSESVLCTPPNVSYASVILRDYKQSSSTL
Sequence of Metabotropic glutamate receptor 6 (Homo sapiens) (O15303 whole entry): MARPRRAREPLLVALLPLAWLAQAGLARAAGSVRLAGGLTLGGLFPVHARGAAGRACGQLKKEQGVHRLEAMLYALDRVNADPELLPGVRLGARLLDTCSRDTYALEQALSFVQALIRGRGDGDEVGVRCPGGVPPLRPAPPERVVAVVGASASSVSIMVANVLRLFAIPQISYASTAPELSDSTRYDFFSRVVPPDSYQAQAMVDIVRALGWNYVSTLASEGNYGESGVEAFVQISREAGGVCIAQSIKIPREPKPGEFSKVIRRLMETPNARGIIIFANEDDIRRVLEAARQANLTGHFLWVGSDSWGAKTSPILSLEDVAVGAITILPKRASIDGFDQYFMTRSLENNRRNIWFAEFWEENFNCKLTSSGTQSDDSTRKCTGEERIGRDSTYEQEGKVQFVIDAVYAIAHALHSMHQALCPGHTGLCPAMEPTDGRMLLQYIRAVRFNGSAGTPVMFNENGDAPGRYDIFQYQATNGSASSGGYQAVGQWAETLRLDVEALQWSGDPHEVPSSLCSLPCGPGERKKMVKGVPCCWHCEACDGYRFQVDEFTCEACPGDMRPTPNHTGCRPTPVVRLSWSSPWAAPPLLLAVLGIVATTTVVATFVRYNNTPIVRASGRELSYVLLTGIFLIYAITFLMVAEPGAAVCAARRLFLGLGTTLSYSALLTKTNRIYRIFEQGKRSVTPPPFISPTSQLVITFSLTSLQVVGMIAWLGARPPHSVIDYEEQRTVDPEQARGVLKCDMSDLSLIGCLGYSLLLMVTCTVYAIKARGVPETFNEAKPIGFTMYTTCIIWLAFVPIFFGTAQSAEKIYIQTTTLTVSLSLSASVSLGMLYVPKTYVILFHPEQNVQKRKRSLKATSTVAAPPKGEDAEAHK
T3 sequence (Q01959 whole entry): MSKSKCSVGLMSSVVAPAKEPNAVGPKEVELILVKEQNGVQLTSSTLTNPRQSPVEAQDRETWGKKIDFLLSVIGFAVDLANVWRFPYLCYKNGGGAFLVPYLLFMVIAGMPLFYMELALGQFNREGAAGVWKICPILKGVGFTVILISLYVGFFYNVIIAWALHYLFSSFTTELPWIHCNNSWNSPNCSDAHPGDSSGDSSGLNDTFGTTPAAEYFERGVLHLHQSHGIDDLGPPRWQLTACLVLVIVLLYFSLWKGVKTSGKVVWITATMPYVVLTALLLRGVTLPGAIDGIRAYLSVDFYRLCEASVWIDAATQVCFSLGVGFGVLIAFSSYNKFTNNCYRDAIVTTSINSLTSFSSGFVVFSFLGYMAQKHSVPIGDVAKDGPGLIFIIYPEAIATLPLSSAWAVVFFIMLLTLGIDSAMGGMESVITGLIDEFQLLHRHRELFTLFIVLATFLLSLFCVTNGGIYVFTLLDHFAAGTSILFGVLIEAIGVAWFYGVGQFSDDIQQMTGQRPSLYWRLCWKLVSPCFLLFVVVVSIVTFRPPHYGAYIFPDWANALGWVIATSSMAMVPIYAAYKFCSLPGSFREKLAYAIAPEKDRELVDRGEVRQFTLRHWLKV
T2 sequence (P31424 whole entry): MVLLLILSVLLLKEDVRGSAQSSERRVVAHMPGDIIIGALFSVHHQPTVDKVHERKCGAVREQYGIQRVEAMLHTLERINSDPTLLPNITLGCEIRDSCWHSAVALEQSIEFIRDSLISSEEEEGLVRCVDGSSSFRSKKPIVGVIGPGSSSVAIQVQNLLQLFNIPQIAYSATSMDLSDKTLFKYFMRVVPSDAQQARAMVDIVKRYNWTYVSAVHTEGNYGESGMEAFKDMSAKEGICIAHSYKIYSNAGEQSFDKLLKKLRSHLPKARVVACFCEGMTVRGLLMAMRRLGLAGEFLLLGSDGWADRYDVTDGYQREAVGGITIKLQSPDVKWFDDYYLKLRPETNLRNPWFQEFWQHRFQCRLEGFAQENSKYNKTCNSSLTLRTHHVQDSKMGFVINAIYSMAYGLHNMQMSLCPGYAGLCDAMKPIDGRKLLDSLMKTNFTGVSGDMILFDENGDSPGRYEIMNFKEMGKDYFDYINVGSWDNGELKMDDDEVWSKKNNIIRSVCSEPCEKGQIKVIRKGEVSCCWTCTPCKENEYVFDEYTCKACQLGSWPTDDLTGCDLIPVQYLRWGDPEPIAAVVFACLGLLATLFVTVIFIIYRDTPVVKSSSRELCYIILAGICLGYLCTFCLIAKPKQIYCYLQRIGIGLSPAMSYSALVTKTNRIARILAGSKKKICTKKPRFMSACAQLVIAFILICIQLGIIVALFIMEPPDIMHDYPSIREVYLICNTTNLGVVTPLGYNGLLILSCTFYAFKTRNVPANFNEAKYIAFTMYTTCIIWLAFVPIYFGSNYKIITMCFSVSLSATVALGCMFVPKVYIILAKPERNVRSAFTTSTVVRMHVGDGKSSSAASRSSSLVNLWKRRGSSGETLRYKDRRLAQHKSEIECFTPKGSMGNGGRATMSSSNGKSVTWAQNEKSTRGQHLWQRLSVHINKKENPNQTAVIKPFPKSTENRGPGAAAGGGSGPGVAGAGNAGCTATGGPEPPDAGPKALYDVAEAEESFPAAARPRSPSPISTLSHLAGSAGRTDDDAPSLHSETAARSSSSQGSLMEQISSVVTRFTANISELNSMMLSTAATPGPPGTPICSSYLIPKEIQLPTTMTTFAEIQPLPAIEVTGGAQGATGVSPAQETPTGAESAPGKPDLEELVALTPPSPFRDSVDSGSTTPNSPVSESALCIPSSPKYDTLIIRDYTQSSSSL

Row | Ki [1] [µM] | inhibition [2] [%] | inhibition [3] [%] | inhibition [4] [%] | Ki [5] [µM] | IC50 [6] [µM] | Ki [7] [µM] | Ki [8] [µM] | Ki [9] [µM] | Ki [10] [µM] | Ki [11] [µM] | Ki [12] [µM] | SMILES
1 | > 10 | > 70 | < 70 | < 70 | – | – | – | – | – | – | – | – | Cc1cccc(NC(=O)c2ccc(F)c(F)c2)n1
2 | – | > 70 | < 70 | < 70 | 1.73 | 1.87 | – | – | – | – | – | – | Cc1cccc(NC(=O)c2cccc(Cl)c2)n1
3 | > 10 | > 70 | < 70 | < 70 | – | – | – | – | – | – | – | – | Cc1cccc(NC(=O)c2ccc(Br)cc2)n1
4 | – | > 70 | < 70 | < 70 | 2.04 | > 1 | – | – | – | – | – | – | Cc1cccc(NC(=O)c2ccc(-c3cccnc3)c(C#N)c2)n1
5 | 7.29 | > 70 | < 70 | < 70 | – | – | – | – | – | – | – | – | Cc1cccc(NC(=O)c2ccc(Oc3ccccc3)cc2)n1
6 | – | > 70 | < 70 | < 70 | 0.33 | 0.49 | – | – | – | – | – | – | Cc1cccc(NC(=O)c2cccc(C#N)c2)n1
7 | > 10 | > 70 | < 70 | < 70 | – | – | – | – | – | – | – | – | Cc1cccc(NC(=O)c2ccc(C#N)cc2)n1
8 | 0.0098 | – | – | – | – | 0.0137 | > 6 | > 6 | > 6 | > 6 | > 6 | > 6 | Cc1cccc(NC(=O)c2ccc(-c3ccccc3)c(C#N)c2)n1
9 | – | > 70 | < 70 | < 70 | – | – | > 6 | > 6 | > 6 | > 6 | > 6 | > 6 | Cc1cccc(NC(=O)c2ccc(-c3cccc(F)c3)c(C#N)c2)n1
10 | 3.33 | ≤ 70 | < 70 | < 70 | – | – | – | – | – | – | – | – | Cc1cccc(NC(=O)c2ccc(-c3cccc(Cl)c3)cc2)n1
11 | > 10 | ≤ 70 | < 70 | < 70 | – | – | – | – | – | – | – | – | Cc1cccc(NC(=O)c2ccc(-c3cccc(C#N)c3)cc2)n1
12 | – | > 70 | < 70 | < 70 | 0.134 | 0.00457 | – | – | – | – | – | – | Cc1cccc(NC(=O)c2ccc(-c3ccc(F)cc3)c(C#N)c2)n1
13 | 7 | ≤ 70 | < 70 | < 70 | – | – | – | – | – | – | – | – | Cc1cccc(NC(=O)c2ccc(-c3ccccc3)cc2)n1

More lines, now with the values behind:

Row | SMILES | Ki [1] [µM] | inhibition [2] [%] | inhibition [3] [%] | inhibition [4] [%] | Ki [5] [µM] | IC50 [6] [µM] | Ki [7] [µM] | Ki [8] [µM] | Ki [9] [µM] | Ki [10] [µM] | Ki [11] [µM] | Ki [12] [µM]
14 | Cc1cccc(NC(=O)c2cccc(-c3ccccc3)c2)n1 | – | > 70 | < 70 | < 70 | 7.3 | – | – | – | – | – | – | –
15 | Cc1nc(C#Cc2cc(F)cc(C#N)c2)cs1 | 0.0009 | > 70 | < 70 | < 70 | – | 0.000813 | – | – | – | – | – | –
16 | Cc1cccc(NC(=O)c2cc(-c3cc(F)cc(F)c3)ccn2)n1 | – | > 70 | < 70 | < 70 | – | 0.0981 | – | – | – | – | – | –
17 | COc1ccccc1-c1cc(F)cc(C(=O)Nc2cccc(C)n2)c1 | – | > 70 | < 70 | < 70 | > 10 | – | – | – | – | – | – | –
18 | Cc1nc(C#Cc2ccc(-c3ccccc3)nc2)cs1 | – | > 70 | < 70 | < 70 | – | – | – | – | – | – | – | –
19 | Cc1nc(C#Cc2ccc(-c3cccnc3)c(F)c2)cs1 | – | > 70 | < 70 | < 70 | – | – | > 6 | > 6 | > 6 | > 6 | > 6 | > 6
20 | Cc1cccc(NC(=O)c2ccc(-c3cccnc3)nc2)n1 | – | > 70 | < 70 | < 70 | 2.48 | > 3 | – | – | – | – | – | –
21 | Cc1cccc(NC(=O)c2cc(F)cc(-c3cccnc3)c2)n1 | – | > 70 | < 70 | < 70 | 0.702 | – | – | – | – | – | – | –
22 | Cc1nc(C#Cc2cccc(-c3ccccc3)c2)cs1 | – | > 70 | < 70 | < 70 | – | – | – | – | – | – | – | –
23 | Cc1nc(C#Cc2cccnc2)cs1 | – | < 70 | < 70 | < 70 | – | – | – | – | – | – | – | –
24 | Cc1cccc(NC(=O)c2cc(F)cc(C#N)c2)n1 | – | > 70 | < 70 | < 70 | 0.0655 | 0.0217 | – | – | – | – | – | –
25 | Cc1cccc(NC(=O)c2ccc(-c3cccc4ccccc34)c(C#N)c2)n1 | – | > 70 | < 70 | < 70 | 0.072 | 0.64 | – | – | – | – | – | –
26 | Cc1cccc(C#Cc2ccccc2)n1 | – | > 70 | < 70 | < 70 | – | – | – | – | – | – | – | –
27 | Cc1cccc(C#Cc2ccc(-c3ccc(F)cc3)c(C#N)c2)n1 | – | > 70 | < 70 | < 70 | 0.003 | 0.00719 | – | – | – | – | – | –
28 | Cc1cccc(C#Cc2cccc(C#N)c2)n1 | – | > 70 | < 70 | < 70 | 0.0013 | 0.000415 | – | – | – | – | – | –
29 | Cc1cccc(NC(=O)c2cncc(-c3cccnc3)c2)n1 | – | > 70 | < 70 | < 70 | > 10 | – | – | – | – | – | – | –
30 | COc1ccccc1-c1cncc(C(=O)Nc2cccc(C)n2)c1 | – | > 70 | < 70 | < 70 | 4.92 | – | – | – | – | – | – | –
31 | Cc1nc(C#Cc2ccc(-c3cccnc3)nc2)cs1 | – | > 70 | < 70 | < 70 | – | – | – | – | – | – | – | –
32 | Cc1cccc(NC(=O)c2cc(F)cc(F)c2)n1 | 7.58 | ≤ 70 | < 70 | < 70 | – | – | – | – | – | – | – | –
33 | Cc1cccc(NC(=O)c2ccc(-c3ccccc3)nc2)n1 | – | > 70 | < 70 | < 70 | 0.356 | > 3 | – | – | – | – | – | –
34 | Cc1cccc(NC(=O)c2ccc(-c3cccnc3)c(F)c2)n1 | – | > 70 | < 70 | < 70 | 7.72 | > 3 | – | – | – | – | – | –
35 | Cc1cccc(NC(=O)c2ccc(-c3cccnc3)c(Cl)c2)n1 | – | > 70 | < 70 | < 70 | 2.78 | > 1 | – | – | – | – | – | –
36 | Cc1cccc(NC(=O)c2cc(F)cc(-c3ccccc3C)c2)n1 | – | > 70 | < 70 | < 70 | 0.61 | – | – | – | – | – | – | –
37 | Cc1nc(C#Cc2cc(F)cc(-c3cccnc3)c2)cs1 | 0.0027 | > 70 | < 70 | < 70 | – | 0.00483 | > 6 | > 6 | > 6 | > 6 | > 6 | > 6
